Results on 46 molecules are retold here after patent US11401254B2, “Substituted thiophenecarboxamides and analogues as antibacterials agents” (Bayer Aktiengesellschaft, priority 2018, dated 2022).

Series [1] can be described thus: Log P by HPLC on reversed phase columns (EEC directive 79/831 Annex V.A8). In kind it is physicochemical. The conditions noted are these: for chromatographic logP: reversed phase HPLC columns. As for the experimental part: In the above tables, measurement of Log P values was performed according to EEC directive 79/831 Annex V.A8 by HPLC (High Performance Liquid Chromatography) on reversed phase columns with the following methods: • ^[a]
If more than one Log P value is available within the same method, all the values are given and separated by “+”.
Calibration was done with straight-chain alkan2-ones (with 3 to 16 carbon atoms) with known Log P values (measurement of Log P values using retention times with linear interpolation between successive alkanones). Lambda-max-values were determined using UV-spectra from 200 nm to 400 nm and the peak values of the chromatographic signals.

Series [2] relates to Xanthomonas campestris pv. campestris. The experiment in a line: Xanthomonas campestris pv. campestris in vitro cell test (bacteria growth in liquid culture). It counts as cell-based. The conditions noted are these: 20 ppm of tested compound; 24 h of incubation. As to the method: Example A: Xanthomonas Campestris pv. Campestris In Vitro Cell Test
Culture medium: LB broth medium (Luria Broth Miller) Sigma
Inoculum: bacteria suspension
Compounds to be tested were solubilized in DMSO and the solution used to prepare the required range of concentrations. The final concentration of DMSO used in the assay was ≤1%.
Inoculum was prepared from a pre-culture of bacteria grown in liquid medium and diluted to the desired optical density (OD).
Compounds were evaluated for their ability to inhibit bacteria growth in liquid culture assay. The compounds were added in the desired concentrations to culture medium containing the bacteria suspension. After 24 h of incubation, the efficacy of compounds was determined by spectrometric measurement of bacteria growth. Inhibition was determined by comparing the absorbance values in wells containing the compounds with the absorbance in control wells without compounds.

The mark [3] stands for this setting: method [a]: LC-UV, acidic range, 0.1% formic acid in water and acetonitrile as eluent.

SMILES strings stand for the structures.

On to `CCOC(=O)CNC(=O)c1sc(Cl)c(Cl)c1C` [I.03, ethyl N-[(4,5-dichloro-3-methyl-2-thienyl)carbonyl]glycinate], for which the chromatographic logP (commonly lipophilicity estimated from chromatographic retention) stood at 2.9 in series [1] (setting [3]) and 2.95 in series [1] (value given in preparation example, method variant not stated). In addition, the “direct activity (inhibition of bacteria growth)” value in series [2] is recorded as “no direct activity”.
With `CCOC(=O)C(CC(C)C)NC(=O)c1sc(Br)c(Br)c1C` (stereo not drawn) [I.05], in series [1] (setting [3]), the LogP is 4.56^[a]. Also, the “direct activity (inhibition of bacteria growth)” value in series [2] is “no direct activity”.
Taken in the same sequence, the figures for `CCOC(=O)[C@@H](NC(=O)c1sc(Br)c(Br)c1C)C(C)C` [I.08] were 4.32^[a] and “no direct activity”.
As to `Cc1c(C(=O)NCC(=O)O)sc(Br)c1Br` [I.10], the LogP in series [1] (setting [3]) is 2.05^[a]. Besides, the “direct activity (inhibition of bacteria growth)” value in series [2] was “no direct activity”.
On the same counts, the results for `COC(=O)[C@@H](NC(=O)c1sc(Br)c(Br)c1C)C(C)C` [I.11] are 3.87^[a] and “no direct activity”.
Turning to `C#CCOC(=O)C(NC(=O)c1sc(Br)c(Br)c1C)C(C)C` (stereo not drawn) [I.13], the LogP in series [1] (setting [3]) was 4.06^[a]. Moreover, in series [2], the “direct activity (inhibition of bacteria growth)” value is “no direct activity”.
As for `Cc1c(C(=O)NC(C(=O)OCC(C)C)C(C)C)sc(Br)c1Br` (stereo not drawn) [I.14], the LogP in series [1] (setting [3]) was 5.22^[a]. In addition, the “direct activity (inhibition of bacteria growth)” value in series [2] is “no direct activity”.
Taken in the same sequence, the figures for `Cc1c(C(=O)NC(C(=O)OCC#N)C(C)C)sc(Br)c1Br` (stereo not drawn) [I.15] were 3.69^[a] and “no direct activity”.
On the same counts, the results for `Cc1c(C(=O)NC(C(=O)OC2CSC2)C(C)C)sc(Br)c1Br` (stereo not drawn) [I.17] are 4.67^[a] and “no direct activity”.
On the same counts, the results for `Cc1c(C(=O)NC(C(=O)OC2CS(=O)(=O)C2)C(C)C)sc(Br)c1Br` (stereo not drawn) [I.18] are 3.42^[a] and “no direct activity”.
Consider `Cc1c(C(=O)NC(C(=O)OC2CCOC2)C(C)C)sc(Br)c1Br` (stereo not drawn) [I.19], for which the LogP in series [1] (setting [3]) is 3.78^[a]. Further, the “direct activity (inhibition of bacteria growth)” value in series [2] is on record as “no direct activity”.
On the same counts, the results for `Cc1c(C(=O)NC(C(=O)OC[Si](C)(C)C)C(C)C)sc(Br)c1Br` (stereo not drawn) [I.20] are 5.78^[a] and “no direct activity”.
`CCOC(=O)C(C)NC(=O)c1sc(Br)c(Br)c1C` (stereo not drawn) [I.21]: the LogP in series [1] (setting [3]) is 3.39^[a]. Also, in series [2], the “direct activity (inhibition of bacteria growth)” value is “no direct activity”.
On the same counts, the results for `CCOC(=O)C(Cc1ccc(O)cc1)NC(=O)c1sc(Br)c(Br)c1C` (stereo not drawn) [I.23] are 3.33^[a] and “no direct activity”.
Taken in the same sequence, the figures for `CCOC(=O)[C@H](CCSC)NC(=O)c1sc(Cl)c(Cl)c1C` [I.24] were 3.94^[a] and “no direct activity”.
Taken in the same sequence, the figures for `CCOC(=O)[C@H](Cc1ccccc1)NC(=O)c1sc(Cl)c(Cl)c1C` [I.26] were 4.46^[a] and “no direct activity”.
For `CCOC(=O)C(C)NC(=O)c1sc(Cl)c(Cl)c1C` (stereo not drawn) [I.27], the LogP in series [1] (setting [3]) was 3.31^[a]. The “direct activity (inhibition of bacteria growth)” value in series [2] is reported as “no direct activity”.
On the same counts, the results for `Cc1c(C(=O)NCC(=O)OC(C)(C)C)sc(Cl)c1Cl` [I.28] are 3.77^[a] and “no direct activity”.
In the case of `COC(=O)[C@@H](NC(=O)c1sc(Cl)c(Cl)c1C)C(C)C` [I.29], in series [1] (setting [3]), the LogP was 3.79^[a]. Also, the “direct activity (inhibition of bacteria growth)” value in series [2] was “no direct activity”.
Taken in the same sequence, the figures for `COC(=O)[C@H](CCSC)NC(=O)c1sc(Cl)c(Cl)c1C` [I.30] were 3.55^[a] and “no direct activity”.
Taken in the same sequence, the figures for `COC(=O)CNC(=O)c1sc(Cl)c(Cl)c1C` [I.31] were 2.51^[a] and “no direct activity”.
For the molecule `CCOC(=O)[C@H](CC(C)C)NC(=O)c1sc(Cl)c(Cl)c1C` [I.33], the LogP in series [1] (setting [3]) is 4.54^[a]. Besides, the “direct activity (inhibition of bacteria growth)” value in series [2] is given as “no direct activity”.
Taken in the same sequence, the figures for `Cc1c(C(=O)NCC(=O)OCc2ccccc2)sc(Cl)c1Cl` [I.34] were 3.76^[a] and “no direct activity”.
On the same counts, the results for `COC(=O)C(CCSC)NC(=O)c1sc(Cl)c(Cl)c1C` (stereo not drawn) [I.35] are 3.55^[a] and “no direct activity”.
On the same counts, the results for `COC(=O)[C@@H](CCSC)NC(=O)c1sc(Cl)c(Cl)c1C` [I.36] are 3.55^[a] and “no direct activity”.
For `CCOC(=O)C(CC(C)C)NC(=O)c1sc(Cl)c(Cl)c1C` (stereo not drawn) [I.37], the LogP in series [1] (setting [3]) is 4.51^[a]. Besides, the “direct activity (inhibition of bacteria growth)” value in series [2] is “no direct activity”.
On the same counts, the results for `CCOC(=O)C(Cc1ccccc1)NC(=O)c1sc(Cl)c(Cl)c1C` (stereo not drawn) [I.38] are 4.46^[a] and “no direct activity”.
For the molecule `CCOC(=O)C(Cc1ccc(O)cc1)NC(=O)c1sc(Cl)c(Cl)c1C` (stereo not drawn) [I.39], in series [1] (setting [3]), the LogP is 3.29^[a]. Further, in series [2], the “direct activity (inhibition of bacteria growth)” value was “no direct activity”.
On the same counts, the results for `Cc1c(C(=O)NCC(=O)OC(C)C)sc(Cl)c1Cl` [I.41] are 3.29^[a] and “no direct activity”.
Taken in the same sequence, the figures for `CCOC(=O)[C@@H](C)NC(=O)c1sc(Cl)c(Cl)c1C` [I.42] were 3.31^[a] and “no direct activity”.
On the same counts, the results for `CCOC(=O)C1(NC(=O)c2sc(Cl)c(Cl)c2C)CC1` [I.43] are 3.08^[a] and “no direct activity”.
For `CCOC(=O)[C@@H](Cc1ccccc1)NC(=O)c1sc(Cl)c(Cl)c1C` [I.45], the LogP in series [1] (setting [3]) was 4.46^[a]. Also, the “direct activity (inhibition of bacteria growth)” value in series [2] is listed as “no direct activity”.
Taken in the same sequence, the figures for `COC(=O)C(NC(=O)c1sc(Cl)c(Cl)c1C)C(C)C` (stereo not drawn) [I.46] were 3.79^[a] and “no direct activity”.
Taken in the same sequence, the figures for `CCOC(=O)C(CCSC)NC(=O)c1sc(Cl)c(Cl)c1C` (stereo not drawn) [I.47] were 3.94^[a] and “no direct activity”.
On the same counts, the results for `CCCOC(=O)CNC(=O)c1sc(Cl)c(Cl)c1C` [I.48] are 3.35^[a] and “no direct activity”.
Consider `Cc1c(C(=O)NC(C(=O)OC(C)C)C(C)C)sc(Br)c1Br` (stereo not drawn) [I.49], for which the LogP in series [1] (setting [3]) was 4.77^[a]. Further, in series [2], the “direct activity (inhibition of bacteria growth)” value is “no direct activity”.
On the same counts, the results for `Cc1c(C(=O)NC2(C(=O)O)CC2)sc(Cl)c1Cl` [I.51] are 2.26^[a] and “no direct activity”.
Taken in the same sequence, the figures for `Cc1c(C(=O)NC(C(=O)OC2CCC2)C(C)C)sc(Br)c1Br` (stereo not drawn) [I.53] were 4.98^[a] and “no direct activity”.
On the same counts, the results for `CCCOC(=O)C(NC(=O)c1sc(Br)c(Br)c1C)C(C)C` (stereo not drawn) [I.54] are 4.77^[a] and “no direct activity”.
As for `CCCCOC(=O)C(NC(=O)c1sc(Br)c(Br)c1C)C(C)C` (stereo not drawn) [I.55], the LogP in series [1] (setting [3]) is 5.25^[a]. For the same molecule, in series [2], the “direct activity (inhibition of bacteria growth)” value is given as “no direct activity”.
Taken in the same sequence, the figures for `Cc1c(C(=O)NC(C(=O)OC2CC2)C(C)C)sc(Br)c1Br` (stereo not drawn) [I.56] were 4.37^[a] and “no direct activity”.
Take `Cc1c(C(=O)NC(C(=O)OCc2ccccc2)C(C)C)sc(Br)c1Br` (stereo not drawn) [I.57]: the LogP in series [1] (setting [3]) was 5.03^[a]. For the same molecule, the “direct activity (inhibition of bacteria growth)” value in series [2] is given as “no direct activity”.
Taken in the same sequence, the figures for `C=CCOC(=O)C(NC(=O)c1sc(Br)c(Br)c1C)C(C)C` (stereo not drawn) [I.58] were 4.46^[a] and “no direct activity”.
On the same counts, the results for `Cc1c(C(=O)NC(C(=O)OCC(F)(F)F)C(C)C)sc(Br)c1Br` (stereo not drawn) [I.59] are 4.51^[a] and “no direct activity”.
Taken in the same sequence, the figures for `Cc1c(C(=O)NC(C(=O)Oc2ccccc2)C(C)C)sc(Br)c1Br` (stereo not drawn) [I.60] were 4.85^[a] and “no direct activity”.
Take `Cc1c(C(=O)NC(C(=O)OC(C)(C)C)C(C)C)sc(Br)c1Br` (stereo not drawn) [I.61]: in series [1] (setting [3]), the LogP is 5.25^[a]. Further, the “direct activity (inhibition of bacteria growth)” value in series [2] is “no direct activity”.
